{"source": "patent US10919911B2", "about": "“Tricyclic ASK1 inhibitors” (Terns, Inc., priority 2018, dated 2021)"}
{"target": "ASK1 kinase (Homo sapiens (Human), UniProt Q99683)", "sequence (Q99683 whole entry)": "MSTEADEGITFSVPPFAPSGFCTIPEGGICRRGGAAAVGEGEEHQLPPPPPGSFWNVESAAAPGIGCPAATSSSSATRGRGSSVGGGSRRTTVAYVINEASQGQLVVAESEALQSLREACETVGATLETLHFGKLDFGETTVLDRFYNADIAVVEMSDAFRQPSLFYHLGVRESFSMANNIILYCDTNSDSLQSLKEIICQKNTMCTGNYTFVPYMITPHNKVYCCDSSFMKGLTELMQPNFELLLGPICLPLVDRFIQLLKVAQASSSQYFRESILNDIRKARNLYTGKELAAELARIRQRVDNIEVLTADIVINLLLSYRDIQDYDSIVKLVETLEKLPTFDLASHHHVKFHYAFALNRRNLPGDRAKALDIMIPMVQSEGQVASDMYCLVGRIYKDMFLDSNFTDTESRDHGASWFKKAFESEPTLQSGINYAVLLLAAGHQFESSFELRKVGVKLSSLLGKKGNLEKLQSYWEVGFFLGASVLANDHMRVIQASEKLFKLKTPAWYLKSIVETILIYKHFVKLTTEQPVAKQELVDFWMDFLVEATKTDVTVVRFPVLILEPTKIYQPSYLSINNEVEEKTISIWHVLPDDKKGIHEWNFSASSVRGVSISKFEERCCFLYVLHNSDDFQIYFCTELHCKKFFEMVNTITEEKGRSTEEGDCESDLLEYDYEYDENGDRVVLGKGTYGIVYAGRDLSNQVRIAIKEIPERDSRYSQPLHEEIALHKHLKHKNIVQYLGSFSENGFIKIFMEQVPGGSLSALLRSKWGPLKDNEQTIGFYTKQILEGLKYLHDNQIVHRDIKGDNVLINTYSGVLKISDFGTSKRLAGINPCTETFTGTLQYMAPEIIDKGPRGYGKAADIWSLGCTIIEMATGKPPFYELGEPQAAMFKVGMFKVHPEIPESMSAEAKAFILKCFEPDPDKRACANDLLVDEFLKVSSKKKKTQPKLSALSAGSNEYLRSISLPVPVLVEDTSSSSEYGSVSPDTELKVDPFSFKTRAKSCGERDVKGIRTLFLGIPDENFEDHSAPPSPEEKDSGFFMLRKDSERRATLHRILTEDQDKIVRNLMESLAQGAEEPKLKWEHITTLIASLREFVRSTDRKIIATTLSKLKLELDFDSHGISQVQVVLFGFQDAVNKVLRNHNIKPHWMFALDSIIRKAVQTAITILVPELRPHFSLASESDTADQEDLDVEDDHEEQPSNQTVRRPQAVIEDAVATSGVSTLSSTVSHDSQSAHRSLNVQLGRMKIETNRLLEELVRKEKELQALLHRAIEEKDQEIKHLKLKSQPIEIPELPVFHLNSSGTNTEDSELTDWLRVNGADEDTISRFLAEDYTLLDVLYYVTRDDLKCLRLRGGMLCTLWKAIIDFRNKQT", "assay": "RBC Kinase Assay (33P-ATP radiometric, myelin basic protein substrate)", "type": "biochemical", "conditions": "20 ng ASK1 kinase, MBP substrate, 120 min at room temperature, 1% DMSO", "description": "Example B1. RBC Kinase Assay Protocol\nBase Reaction buffer: 20 mM Hepes (pH 7.5), 10 mM MgCl2, 1 mM EGTA, 0.02% Brij35, 0.02 mg/ml BSA, 0.1 mM Na3VO4, 2 mM DTT, and 1% DMSO were used for the assay.\nMyelin base protein (MPB) was prepared in freshly prepared Base Reaction Buffer. 20 ng of ASK1 kinase was delivered into the substrate solution and gently mixed. Compounds in DMSO were delivered into the kinase reaction mixture (final DMSO concentration 1%). Commercially available 33P-ATP was delivered into the reaction mixture to initiate the reaction. The kinase reaction was incubated for 120 min. at room temperature. Reactions were spotted onto P81 ion exchange paper (Whatman #3698-915). Filters were washed extensively in 0.75% Phosphoric acid. Radioactivity on filters was read, and IC50 values were determined.", "units": {"IC50": "nM"}}
{"smiles": "O=C(Nc1cccc2c1OCCn1nnnc1-2)c1cc(-n2cnc(C3CC3)c2)c(N2CCC2)cn1", "note": "[Example 58, 5-(azetidin-1-yl)-4-(4-cyclopropyl-1H-imidazol-1-yl)-N-(5,6-dihydrobenzo[f]tetrazolo[1,5-d][1,4]oxazepin-8-yl)picolinamide]", "IC50": 3.2}
{"smiles": "Cc1cc(F)c(C(=O)Nc2cccc3c2OC2(CC2)Cn2nnnc2-3)cc1-n1cnc(C2CC2)c1", "note": "[Example 59, 5-(4-cyclopropyl-1H-imidazol-1-yl)-2-fluoro-4-methyl-N-(5H-spiro[benzo[f]tetrazolo[1,5-d][1,4]oxazepine-6,1′-cyclopropan]-8-yl)benzamide]", "IC50": 4.2}
{"smiles": "CN(C)c1cnc(C(=O)Nc2cccc3c2OCCn2nnnc2-3)cc1-n1cnc(C2CC2)c1", "note": "[Example 60, 4-(4-cyclopropyl-1H-imidazol-1-yl)-N-(5,6-dihydrobenzo[f]tetrazolo[1,5-d][1,4]oxazepin-8-yl)-5-(dimethylamino)picolinamide]", "IC50": 6.9}
{"smiles": "O=C(Nc1cccc2c1OCCn1nnnc1-2)c1cc(-n2cnc(C3CC3)c2)c(N2CC[C@H](O)C2)cn1", "note": "[Example 61, (S)-4-(4-cyclopropyl-1H-imidazol-1-yl)-N-(5,6-dihydrobenzo[f]tetrazolo[1,5-d][1,4]oxazepin-8-yl)-5-(3-hydroxypyrrolidin-1-yl)picolinamide]", "IC50": 3.5}
{"smiles": "O=C(Nc1cccc2c1OCCn1nnnc1-2)c1cc(-n2cnc(C3CC3)c2)c(N2C[C@H]3C[C@@H]2CO3)cn1", "note": "[Example 62, 5-((1R,4R)-2-oxa-5-azabicyclo[2.2.1]heptan-5-yl)-4-(4-cyclopropyl-1H-imidazol-1-yl)-N-(5,6-dihydrobenzo[f]tetrazolo[1,5-d][1,4]oxazepin-8-yl)picolinamide]", "IC50": 5.1}
{"smiles": "CC1(O)CCN(c2cnc(C(=O)Nc3cccc4c3OCCn3nnnc3-4)cc2-n2cnc(C3CC3)c2)C1", "note": "(stereo not drawn) [Example 63, 4-(4-cyclopropyl-1H-imidazol-1-yl)-N-(5,6-dihydrobenzo[f]tetrazolo[1,5-d][1,4]oxazepin-8-yl)-5-(3-hydroxy-3-methylpyrrolidin-1-yl)picolinamide]", "IC50": 2.7}
{"smiles": "O=C(Nc1cccc2c1OCCn1nnnc1-2)c1cc(-n2cnc(C3CC3)c2)c(N2C[C@@H]3C[C@H]2CO3)cn1", "note": "[Example 64, 5-((1S,4S)-2-oxa-5-azabicyclo[2.2.1]heptan-5-yl)-4-(4-cyclopropyl-1H-imidazol-1-yl)-N-(5,6-dihydrobenzo[f]tetrazolo[1,5-d][1,4]oxazepin-8-yl)picolinamide]", "IC50": 3.9}
{"smiles": "C[C@H]1COCCN1c1cnc(C(=O)Nc2cccc3c2OCCn2nnnc2-3)cc1-n1cnc(C2CC2)c1", "note": "[Example 65, (S)-4-(4-cyclopropyl-1H-imidazol-1-yl)-N-(5,6-dihydrobenzo[f]tetrazolo[1,5-d][1,4]oxazepin-8-yl)-5-(3-methylmorpholino)picolinamide]", "IC50": 3.3}
{"smiles": "C[C@H]1CN(c2cnc(C(=O)Nc3cccc4c3OCCn3nnnc3-4)cc2-n2cnc(C3CC3)c2)CCO1", "note": "[Example 66, (S)-4-(4-cyclopropyl-1H-imidazol-1-yl)-N-(5,6-dihydrobenzo[f]tetrazolo[1,5-d][1,4]oxazepin-8-yl)-5-(2-methylmorpholino)picolinamide]", "IC50": 6}
{"smiles": "CC1(O)CN(c2cnc(C(=O)Nc3cccc4c3OCCn3nnnc3-4)cc2-n2cnc(C3CC3)c2)C1", "note": "[Example 67, 4-(4-cyclopropyl-1H-imidazol-1-yl)-N-(5,6-dihydrobenzo[f]tetrazolo[1,5-d][1,4]oxazepin-8-yl)-5-(3-hydroxy-3-methylazetidin-1-yl)picolinamide]", "IC50": 2.6}
{"smiles": "CC(C)Oc1cnc(C(=O)Nc2cccc3c2OCCn2nnnc2-3)cc1-n1cnc(C2CC2)c1", "note": "[Example 68, 4-(4-cyclopropyl-1H-imidazol-1-yl)-N-(5,6-dihydrobenzo[f]tetrazolo[1,5-d][1,4]oxazepin-8-yl)-5-isopropoxypicolinamide]", "IC50": 1.8}
{"smiles": "CC(C)Oc1cnc(C(=O)Nc2cccc3c2OC[C@@H](C)n2nnnc2-3)cc1-n1cnc(C2CC2)c1", "note": "[Example 69, (R)-4-(4-cyclopropyl-1H-imidazol-1-yl)-5-isopropoxy-N-(5-methyl-5,6-dihydrobenzo[f]tetrazolo[1,5-d][1,4]oxazepin-8-yl)picolinamide]", "IC50": 4.1}
{"smiles": "C[C@@H]1COCCN1c1cnc(C(=O)Nc2cccc3c2OCCn2nnnc2-3)cc1-n1cnc(C2CC2)c1", "note": "[Example 70, (R)-4-(4-cyclopropyl-1H-imidazol-1-yl)-N-(5,6-dihydrobenzo[f]tetrazolo[1,5-d][1,4]oxazepin-8-yl)-5-(3-methylmorpholino)picolinamide]", "IC50": 2.2}
{"smiles": "CC(C)Oc1cnc(C(=O)Nc2cccc3c2OC[C@H](C)n2nnnc2-3)cc1-n1cnc(C2CC2)c1", "note": "[Example 71, (S)-4-(4-cyclopropyl-1H-imidazol-1-yl)-5-isopropoxy-N-(5-methyl-5,6-dihydrobenzo[f]tetrazolo[1,5-d][1,4]oxazepin-8-yl)picolinamide]", "IC50": 5.3}
{"smiles": "Cc1cc(F)c(C(=O)Nc2cccc3c2OC2(CCC2)Cn2nnnc2-3)cc1-n1cnc(C2CC2)c1", "note": "[Example 72, 5-(4-cyclopropyl-1H-imidazol-1-yl)-2-fluoro-4-methyl-N-(5H-spiro[benzo[f]tetrazolo[1,5-d][1,4]oxazepine-6,1′-cyclobutan]-8-yl)benzamide]", "IC50": 11.6}
{"smiles": "CC(C)Oc1cnc(C(=O)Nc2cccc3c2OCCn2cnnc2-3)cc1-n1cnc(C2CC2)c1", "note": "[Example 73, 4-(4-cyclopropyl-1H-imidazol-1-yl)-N-(5,6-dihydrobenzo[f][1,2,4]triazolo[4,3-d][1,4]oxazepin-8-yl)-5-isopropoxypicolinamide]", "IC50": 5.8}
{"smiles": "Cc1cc(F)c(C(=O)Nc2cccc3c2OCCn2cnc(Br)c2-3)cc1-n1cnc(C2CC2)c1", "note": "[Example 74, N-(1-bromo-5,6-dihydrobenzo[f]imidazo[1,5-d][1,4]oxazepin-8-yl)-5-(4-cyclopropyl-1H-imidazol-1-yl)-2-fluoro-4-methylbenzamide]", "IC50": 39.8}
{"smiles": "C[C@@H]1CN(c2cnc(C(=O)Nc3cccc4c3OC[C@@H](C)n3nnnc3-4)cc2-n2cnc(C3CC3)c2)CCO1", "note": "[Example 75, 4-(4-cyclopropyl-1H-imidazol-1-yl)-N—((R)-5-methyl-5,6-dihydrobenzo[f]tetrazolo[1,5-d][1,4]oxazepin-8-yl)-5-((R)-2-methylmorpholino)picolinamide]", "IC50": 4}
{"smiles": "C[C@@H]1CN(c2cnc(C(=O)Nc3cccc4c3OC[C@H](C)n3nnnc3-4)cc2-n2cnc(C3CC3)c2)CCO1", "note": "[Example 76, 4-(4-cyclopropyl-1H-imidazol-1-yl)-N—((S)-5-methyl-5,6-dihydrobenzo[f]tetrazolo[1,5-d][1,4]oxazepin-8-yl)-5-((R)-2-methylmorpholino)picolinamide]", "IC50": 3.2}
{"smiles": "C[C@@H]1COc2c(NC(=O)c3cc(-n4cnc(C5CC5)c4)c(N4CC[C@@H](O)C4)cn3)cccc2-c2nnnn21", "note": "[Example 77, 4-(4-cyclopropyl-1H-imidazol-1-yl)-5-((R)-3-hydroxypyrrolidin-1-yl)-N—((R)-5-methyl-5,6-dihydrobenzo[f]tetrazolo[1,5-d][1,4]oxazepin-8-yl)picolinamide]", "IC50": 4.7}
{"smiles": "C[C@H]1COc2c(NC(=O)c3cc(-n4cnc(C5CC5)c4)c(N4CC[C@@H](O)C4)cn3)cccc2-c2nnnn21", "note": "[Example 78, 4-(4-cyclopropyl-1H-imidazol-1-yl)-5-((R)-3-hydroxypyrrolidin-1-yl)-N—((S)-5-methyl-5,6-dihydrobenzo[f]tetrazolo[1,5-d][1,4]oxazepin-8-yl)picolinamide]", "IC50": 4.7}
